Results published in BindingDB's records for doi:10.1038/sj.bjp.0703341 (Friedrich-Schiller-University Jena, 2000).
Where “and” joins values, the source holds several entries; their conditions need not be identical. Identical values can stand only once.

Columns and labels:
[1] = molecular target: 5-hydroxytryptamine receptor 6 (Rattus norvegicus, UniProt P31388)
[2] = molecular target: T1, 5-hydroxytryptamine receptor 2C (Sus scrofa, UniProt G7ZKZ7)
T1 sequence (G7ZKZ7 whole entry): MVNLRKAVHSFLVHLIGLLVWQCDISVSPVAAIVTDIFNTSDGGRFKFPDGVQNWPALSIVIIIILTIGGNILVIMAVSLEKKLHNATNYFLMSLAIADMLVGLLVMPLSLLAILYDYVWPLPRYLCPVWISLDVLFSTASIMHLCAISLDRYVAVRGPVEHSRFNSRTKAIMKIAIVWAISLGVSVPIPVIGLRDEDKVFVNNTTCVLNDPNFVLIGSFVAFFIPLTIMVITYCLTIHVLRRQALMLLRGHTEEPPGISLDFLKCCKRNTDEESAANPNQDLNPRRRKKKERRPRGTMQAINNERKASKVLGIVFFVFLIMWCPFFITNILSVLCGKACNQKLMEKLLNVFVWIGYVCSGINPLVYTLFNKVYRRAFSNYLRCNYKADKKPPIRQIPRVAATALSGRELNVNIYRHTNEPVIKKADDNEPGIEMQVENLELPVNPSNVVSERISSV

[3] = molecular target: 5-hydroxytryptamine receptor 7 (Rattus norvegicus, UniProt P32305)
5-hydroxytryptamine receptor 7, sequence (P32305 whole entry): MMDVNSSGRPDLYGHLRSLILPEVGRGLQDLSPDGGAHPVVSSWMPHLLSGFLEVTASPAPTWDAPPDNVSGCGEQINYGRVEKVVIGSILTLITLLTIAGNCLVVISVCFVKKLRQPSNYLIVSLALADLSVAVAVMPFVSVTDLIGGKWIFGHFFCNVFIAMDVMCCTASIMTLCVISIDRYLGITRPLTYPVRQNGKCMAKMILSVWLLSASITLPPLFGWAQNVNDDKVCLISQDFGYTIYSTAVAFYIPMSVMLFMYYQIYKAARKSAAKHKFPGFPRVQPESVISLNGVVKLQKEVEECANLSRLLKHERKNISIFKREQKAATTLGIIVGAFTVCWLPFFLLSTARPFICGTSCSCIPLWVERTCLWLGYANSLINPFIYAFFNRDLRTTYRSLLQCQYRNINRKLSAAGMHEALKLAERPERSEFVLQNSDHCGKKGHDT

[4] = molecular target: 5-hydroxytryptamine receptor 2B (Rattus norvegicus, UniProt P30994)
5-hydroxytryptamine receptor 2B, sequence (P30994 whole entry): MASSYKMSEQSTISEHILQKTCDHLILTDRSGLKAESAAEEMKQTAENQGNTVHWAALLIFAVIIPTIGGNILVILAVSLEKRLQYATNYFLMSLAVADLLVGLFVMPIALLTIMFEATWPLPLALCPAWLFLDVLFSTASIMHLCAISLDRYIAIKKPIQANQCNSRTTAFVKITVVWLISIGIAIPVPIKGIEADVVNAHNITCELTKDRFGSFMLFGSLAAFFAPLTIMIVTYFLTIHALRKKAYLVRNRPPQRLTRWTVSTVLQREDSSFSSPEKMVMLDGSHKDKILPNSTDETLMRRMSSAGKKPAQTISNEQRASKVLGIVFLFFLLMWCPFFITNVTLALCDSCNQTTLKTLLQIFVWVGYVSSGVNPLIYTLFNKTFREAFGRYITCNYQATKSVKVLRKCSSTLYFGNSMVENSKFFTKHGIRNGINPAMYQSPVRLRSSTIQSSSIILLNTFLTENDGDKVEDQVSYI

5-hydroxytryptamine receptor 6, sequence (P31388 whole entry): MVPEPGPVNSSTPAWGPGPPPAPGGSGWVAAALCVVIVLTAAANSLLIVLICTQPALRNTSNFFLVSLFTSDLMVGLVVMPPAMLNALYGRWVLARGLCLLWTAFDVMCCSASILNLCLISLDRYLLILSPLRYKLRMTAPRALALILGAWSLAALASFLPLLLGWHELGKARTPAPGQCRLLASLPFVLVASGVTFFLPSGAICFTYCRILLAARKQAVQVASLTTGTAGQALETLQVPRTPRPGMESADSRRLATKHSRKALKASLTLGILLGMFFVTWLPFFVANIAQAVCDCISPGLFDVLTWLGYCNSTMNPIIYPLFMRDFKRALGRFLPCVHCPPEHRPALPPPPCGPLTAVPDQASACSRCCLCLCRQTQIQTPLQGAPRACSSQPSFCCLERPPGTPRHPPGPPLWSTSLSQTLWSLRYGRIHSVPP

| SMILES | Ki [1] | Ki [2] | Ki [3] | Ki [4] |
| --- | --- | --- | --- | --- |
| Clc1ccc2c(c1)C(N1CCNCC1)=Nc1ccccc1O2 | 6.31 nM |  |  |  |
| Cc1nc2sccn2c(=O)c1CCN1CCC(=C(c2ccc(F)cc2)c2ccc(F)cc2)CC1 | 39.8 nM | 2.51 nM |  |  |
| CN(C)CCC=C1c2ccccc2CCc2ccccc21 | 63.1 nM |  | 126 nM |  |
| CC[C@@H](CO)NC(=O)[C@@H]1C=C2c3cccc4c3c(cn4C)C[C@H]2N(C)C1 | 398 nM | 2.51 nM |  |  |
| CN(C)CC/C=C1\c2ccccc2Sc2ccc(Cl)cc21 | 3.16 nM |  | 5.01 nM |  |
| O=C(c1ccc(F)cc1)C1CCN(CCn2c(=O)[nH]c3ccccc3c2=O)CC1 [3-(2-{4-[(4-fluorophenyl)carbonyl]piperidin-1-yl}ethyl)-1,2,3,4-tetrahydroquinazoline-2,4-dione] | > 10000 nM | 100 nM |  | 3160 nM |
| OCCN1CCN(CCCN2c3ccccc3Sc3ccc(Cl)cc32)CC1 [4-[3-(2-chlorophenothiazin-10-yl)propyl]-1-piperazineethanol] | 15.9 nM |  | 25.1 nM |  |
| O=C(CCCN1CCC2(CC1)C(=O)NCN2c1ccccc1)c1ccc(F)cc1 [8-[4-(4-fluorophenyl)-4-oxidanylidene-butyl]-1-phenyl-1,3,8-triazaspiro[4.5]decan-4-one] |  | 1260 nM |  |  |
| CN1CCN(C2=Nc3ccccc3Oc3ccc(Cl)cc32)CC1 [13-chloro-10-(4-methylpiperazin-1-yl)-2-oxa-9-azatricyclo[9.4.0.0^{3,8}]pentadeca-1(11),3,5,7,9,12,14-heptaene] | 15.9 nM |  | 39.8 nM |  |
| CC(O)C(C)OC(=O)C1CC2c3cccc4c3c(cn4C(C)C)CC2N(C)C1 (stereo not drawn) [CAS_60634-51-7] |  | 7.94 nM |  | 6.31 nM |
| CN1C[C@@H](NS(=O)(=O)N(C)C)C[C@@H]2c3cccc4c3c(cn4C)C[C@H]21 [MESULERGINE] | 1580 nM | 1.58 nM | 6.31 nM |  |
| CN1C[C@H](CNC(=O)OCc2ccccc2)C[C@@H]2c3cccc4c3c(cn4C)C[C@H]21 [METERGOLINE] | 31.6 nM | 0.63 nM |  |  |
| CN1CCC(=C2c3ccccc3CCc3sccc32)CC1 [NSC_27400] |  | 7.94 nM |  |  |
| CSc1ccc2c(c1)C(N1CCN(C)CC1)Cc1ccccc1S2 (stereo not drawn) [methanesulfonic acid;1-methyl-4-(3-methylsulfanyl-5,6-dihydrobenzo[b][1]benzothiepin-5-yl)piperazine] |  | 25.1 nM |  |  |
| COC(=O)[C@@H]1[C@H]2C[C@H]3c4[nH]c5ccccc5c4CCN3C[C@@H]2CC[C@@H]1O [yohimbic acid methyl ester] |  | 1580 nM and > 10000 nM |  | 39.8 nM |
